Where “and” joins values, the source holds several entries; their conditions need not be identical. Equal entries are not always repeated.
What was measured:
[1] = instrument: DT, single field
[2] = instrument: DT, single field, calibrated with Agilent tune mix (Agilent)
[3] = instrument: TW, calibrated with phosphatidylcholines (ESI+) and phosphatidylethanolamines (ESI-)
[4] = instrument: DT, stepped-field
[5] = [M+Na]+; instrument: DT; stepped-field

Compound: CCCCCCCCCCCCCCCCCCCC(=O)O[C@@H](CO)COC(=O)CCCCCCCCCCC [DG(32:0)]
- collision cross section (N2) ([1]; [M+NH4]+): 255.58 Å²

Compound: CCCCC/C=C\C/C=C\CCCCCCCC(=O)O[C@@H](CO)COC(=O)CCCCCCCCCCCCC [DG(32:2)]
- collision cross section (N2) ([1]; [M+NH4]+): 253.01 Å²

Compound: CCCCC/C=C\C/C=C\CCCCCCCCCCCC(=O)O[C@@H](CO)COC(=O)CCCCCCCCCCCCC [DG(36:2)]
- collision cross section (N2) ([1]; [M+NH4]+): 266.09 Å²

Compound: CC/C=C\C/C=C\C/C=C\C/C=C\C/C=C\C/C=C\CCC(=O)O[C@@H](CO)COC(=O)CCCCCCC/C=C\CCCC [DG(36:7)]
- collision cross section (N2) ([1]; [M+NH4]+): 252.3 Å²

Compound: CC/C=C\C/C=C\C/C=C\C/C=C\C/C=C\CCCC(=O)O[C@@H](CO)COC(=O)CCCCCCC/C=C\C/C=C\CCCC [DG(37:7)]
- collision cross section (N2) ([1]; [M+NH4]+): 256.98 Å²

Compound: CCCCC/C=C\C/C=C\C/C=C\C/C=C\CCCCCC(=O)O[C@@H](CO)COC(=O)CCCC/C=C\C/C=C\C/C=C\CCCCC [DG(40:7)]
- collision cross section (N2) ([1]; [M+NH4]+): 266.8 Å² and 270.46 Å² and 267.84 Å²

Compound: CCCCCCCCCCCCCCCCCCCCCCC=CCC(=O)OC[C@H](CO)OC(=O)CC=CCCCCCCCCCCCCCCCCCCCCCC [DG(52:2)]
- collision cross section (N2) ([1]; [M+NH4]+): 319.62 Å²

Compound: CCCCCCCCCCCCCCCCCCC(=O)O[C@H](COC(=O)CCCCCCCCCCC)COP(=O)([O-])OCC[N+](C)(C)C [PC(31:0)]
- collision cross section (N2) ([1]; [M+H]+): 278.69 Å²

Compound: CCC/C=C\C/C=C\CCCCCCCCCC(=O)O[C@H](COC(=O)CCCCCCCCCCCCC)COP(=O)([O-])OCC[N+](C)(C)C [PC(32:2)]
- collision cross section (N2) ([2]; [M+H]+): 276.8 Å²
- collision cross section (N2) ([3]; [M+H]+): 274 Å²
- collision cross section (N2) ([4]; [M+K]+): 289.2 Å²

Compound: CCCCCCCCCCCCCCCCCCCCC(=O)O[C@H](COC(=O)CCCCCCCCCCC)COP(=O)([O-])OCC[N+](C)(C)C [PC(33:0)]
- collision cross section (N2) ([1]; [M+Na]+): 284.2 Å²

Compound: CCCC/C=C\CCCCCCCC(=O)OC[C@H](COP(=O)([O-])OCC[N+](C)(C)C)OC(=O)CCCCCCCCCCCCCCCCCC [PC(33:1)]
- collision cross section (N2) ([1]; [M+H]+): 281.49 Å²
- collision cross section (N2) ([1]; [M+Na]+): 283.22 Å²

Compound: CCCCCCCCCC/C=C\CCCCCCCCCC(=O)O[C@H](COC(=O)CCCCCCCCCCC)COP(=O)(O)OCCN [PE(34:1)]
- collision cross section (N2) ([2]; [M+H]+): 274.7 Å²
- collision cross section (N2) ([2]; [M+Na]+): 281.2 Å²
- collision cross section (N2) ([2]; [M-H]-): 263.5 Å²
- collision cross section (N2) ([3]; [M+H]+): 272.8 Å²
- collision cross section (N2) ([3]; [M-H]-): 262.8 Å²
- collision cross section (N2) ([4]; [M+Na]+): 281.3 Å²

Compound: CCCCC/C=C\C/C=C\CCCCCCCCCC(=O)O[C@H](COC(=O)CCCCCCCCCCCCC)COP(=O)(O)OCCN [PE(34:2)]
- collision cross section (N2) ([2]; [M+H]+): 272.7 Å²
- collision cross section (N2) ([2]; [M+Na]+): 277.6 Å²
- collision cross section (N2) ([2]; [M-H]-): 262 Å²
- collision cross section (N2) ([3]; [M+H]+): 269.9 Å²
- collision cross section (N2) ([4]; [M+Na]+): 278.3 Å²

Compound: CCCCC/C=C\C/C=C\CCCCCCCCCCCC(=O)O[C@H](COC(=O)CCCCCCCCCCCC)COP(=O)(O)OCCN [PE(35:2)]
- collision cross section (N2) ([2]; [M+H]+): 275 Å²
- collision cross section (N2) ([2]; [M-H]-): 264.9 Å²
- collision cross section (N2) ([4]; [M+K]+): 282.5 Å²
- collision cross section (N2) ([4]; [M+Na]+): 281.3 Å²

Compound: CCCCC/C=C\C/C=C\C/C=C\CCCCC(=O)OC[C@H](COP(=O)(O)OCCN)OC(=O)CCCCCCCCCCC/C=C\C/C=C\CCCCC [PE(40:5)]
- collision cross section (N2) ([2]; [M+H]+): 287.1 Å²
- collision cross section (N2) ([2]; [M-H]-): 277.5 Å²
- collision cross section (N2) ([3]; [M+H]+): 284.8 Å²
- collision cross section (N2) ([3]; [M-H]-): 276.2 Å²
- collision cross section (N2) ([4]; [M+Na]+): 294.8 Å²

Compound: CC/C=C\C/C=C\C/C=C\C/C=C\C/C=C\CCCC(=O)OC[C@H](COP(=O)(O)OCCN)OC(=O)CCC/C=C\C/C=C\C/C=C\C/C=C\CCCCC [PE(40:9)]
- collision cross section (N2) ([2]; [M+Na]+): 283.1 Å²
- collision cross section (N2) ([4]; [M+Na]+): 286.6 Å²

Compound: CC/C=C\C/C=C\C/C=C\C/C=C\C/C=C\C/C=C\CCC(=O)O[C@H](COC(=O)CCCCCCCCC/C=C\C/C=C\CCCCC)COP(=O)(O)OCCN [PE(42:8)]
- collision cross section (N2) ([3]; [M+H]+): 290 Å²
- collision cross section (N2) ([4]; [M+Na]+): 297.3 Å²

Compound: CC/C=C\C/C=C\C/C=C\C/C=C\C/C=C\C/C=C\CCC(=O)OC[C@H](COP(=O)(O)OC[C@H](N)C(=O)O)OC(=O)CCCCC/C=C\C/C=C\C/C=C\C/C=C\CCCCC [PS(44:10)]
- collision cross section (N2) ([4]; [M+Na]+): 303.5 Å²
- collision cross section (N2) [5]: 296.88 Å²

Compound: CCCCCCCCCCCCC=CC[C@@H](O)[C@H](COP(=O)([O-])OCC[N+](C)(C)C)NC(=O)CC=CCCCCCCCCCCCCCC [SM(36:2)]
- collision cross section (N2) ([2]; [M+H]+): 286.1 Å²
- collision cross section (N2) ([4]; [M+Na]+): 290.9 Å²

Compound: CCCCCCCCCCCCC=CC[C@@H](O)[C@H](COP(=O)([O-])OCC[N+](C)(C)C)NC(=O)CC=CCC=CCCCCCCCCCCCCCCCCC [SM(42:3)]
- collision cross section (N2) ([2]; [M+HCOO]-): 299.5 Å²
- collision cross section (N2) ([2]; [M+H]+): 302 Å²
- collision cross section (N2) ([4]; [M+Na]+): 305.6 Å²

Compound: CCCCCCCCCCCCC=CC[C@@H](O)[C@H](COP(=O)([O-])OCC[N+](C)(C)C)NC(=O)CCCCCCCCCCCCCCCCCCCCCCCCCC [SM(45:1)]
- collision cross section (N2) ([1]; [M+H]+): 315.31 Å²

Compound: C(OC(=O)CCCCCCCCCCCCC)[C@]([H])(OC(CCCCCCCCCCCCC)=O)COC(CCCCCCCCCCCCC)=O [TG(42:0)]
- collision cross section (N2) ([1]; [M+Na]+): 289.67 Å² and 290.31 Å²

Compound: CCCC/C=C\CCCCCCCC(=O)O[C@@H](COC(=O)CCCCCCC/C=C\CCCCC)COC(=O)CCCCCCCCCCCC [TG(42:2)]
- collision cross section (N2) ([1]; [M+NH4]+): 286.83 Å² and 289.71 Å²
- collision cross section (N2) ([1]; [M+Na]+): 285.72 Å² and 288.76 Å²

Compound: CCCCCCCCCCCCCCCCCC(=O)OC[C@@H](COC(=O)CCCCCCCCCCC)OC(=O)CCCCCCCCCCCCCCCCC [TG(48:0)]
- collision cross section (N2) ([1]; [M+NH4]+): 310.54 Å² and 314.67 Å² and 312.34 Å²

Compound: CCCCCCCCCCCCCCCCCCC(=O)OC[C@@H](COC(=O)CCCCCCCCCCCC)OC(=O)CCCCCCCCCCCCCCCCCC [TG(51:0)]
- collision cross section (N2) ([1]; [M+NH4]+): 324.83 Å² and 327.28 Å²

Compound: CC/C=C\C/C=C\C/C=C\C/C=C\C/C=C\C/C=C\CCC(=O)OC[C@@H](COC(=O)CCCCCCCCCCC)OC(=O)CCCCCCC/C=C\CCCCCCCC [TG(52:7)]
- collision cross section (N2) ([1]; [M+NH4]+): 313.4 Å²

Compound: CCCCCCCCCCCCCCCCCCCC(=O)OC[C@@H](COC(=O)CCCCCCCCCCCC)OC(=O)CCCCCCCCCCCCCCCCCCC [TG(53:0)]
- collision cross section (N2) ([1]; [M+NH4]+): 331.32 Å²

Compound: CCCCCCCCC/C=C\CCCCCCCC(=O)OC[C@@H](COC(=O)CCCCCCCCCCCCCCC)OC(=O)CCCCCCC/C=C\CCCCCCCCC [TG(54:2)]
- collision cross section (N2) ([1]; [M+Na]+): 324.71 Å² and 326.86 Å²

Compound: CCCCC/C=C\C/C=C\C/C=C\C/C=C\CCCC(=O)OC[C@@H](COC(=O)CCCCCCC/C=C\CCCCCC)OC(=O)CCCC/C=C\C/C=C\C/C=C\CCCCC [TG(54:8)]
- collision cross section (N2) ([1]; [M+NH4]+): 316.06 Å²

Compound: CCCCCCCCCCCCCCCCCCCCC(=O)OC[C@@H](COC(=O)CCCCCCCCCCCC)OC(=O)CCCCCCCCCCCCCCCCCCCC [TG(55:0)]
- collision cross section (N2) ([1]; [M+NH4]+): 338.57 Å²

Compound: CCCCC/C=C\C/C=C\CCCCCCCCCC(=O)OC[C@@H](COC(=O)CCCCCCC/C=C\C/C=C\CCCCC)OC(=O)CCCCCCC/C=C\CCCCCCCCC [TG(57:5)]
- collision cross section (N2) ([1]; [M+NH4]+): 334.96 Å²

Compound: CC/C=C\C/C=C\C/C=C\C/C=C\C/C=C\CCCCCC(=O)OC[C@@H](COC(=O)CCCCCCCCCCCCCCCCC)OC(=O)CCCCCCC/C=C\C/C=C\CCCCC [TG(58:7)]
- collision cross section (N2) ([1]; [M+NH4]+): 331.34 Å² and 332.87 Å²
- collision cross section (N2) ([1]; [M+Na]+): 331.1 Å²
